Tests used:
[1] = Repeated water uptake study with solvent-free SPM (dichloromethane preparation); type: physicochemical
Source text: Study of weight change under controlled humidity conditions, samples were placed in open vials, which were placed in closed controlled-humidity jars. Relative humidities were controlled using saturated aqueous salt solutions: 58% RH, NaBr; 75% RH, (NH4)2 SO4; 76%, sodium acetate; 84% RH, KBr.
A possible cause of the observed weight loss is that some reaction solvent (toluene in this case) from the preparation of SPM remained on the solid and evaporated in the humidity jars. To test this theory, it was decided to prepare SPM, show it to be solvent-free, and repeat the water uptake studies. Dichloromethane was chosen as the organic solvent for the preparation rather than toluene because its lower boiling point should allow it to be removed from the solid more easily and completely. SPM was made by stirring a slurry of SPA and one equivalent of water in dichloromethane for 2 days, then isolation by filtration and air-drying of the solid SPM.
The remainder of the SPM sample was allowed to dry in an open jar under ambient conditions for about 1 week. It was then characterized by XRPD elemental analysis, and Karl Fischer (KF) analysis. The sample appears to be pure SPM containing very little, if any, residual solvent.
Both SPM and SPA increased in weight about 20% when equilibrium was reached (constant weight) at each humidity utilized. The samples were analyzed by XRPD after completion of the water uptake experiments. […] The nature of this form has not been determined.

[2] = Weight change under controlled humidity conditions, first study (SPM made by the toluene slurry); type: physicochemical
Source text: Study of weight change under controlled humidity conditions, samples were placed in open vials, which were placed in closed controlled-humidity jars. Relative humidities were controlled using saturated aqueous salt solutions: 58% RH, NaBr; 75% RH, (NH4)2 SO4; 76%, sodium acetate; 84% RH, KBr. Water uptake/loss characteristics of SPM and SPA were compared. Samples were kept at ambient temperature under various relative humidities (RHs) and were periodically weighed. […] The fact that SPM loses significant mass under even high humidity conditions is inconsistent with the loss of only water.

O=C1NC(=O)C(c2ccccc2)(c2ccccc2)N1 [SPA, sodium phenytoin anhydrate, reference compound]
Percent change based on average of final two weights ([1]; 58% RH): +19%
sample weight ([1]; 58% RH, day 0 (starting weight)): 1.5087 g
change in starting weight ([1]; 58% RH, day 1): +0.0263 g
sample weight ([1]; 58% RH, day 1): 1.5350 g
change in starting weight ([1]; 58% RH, day 2): +0.0510 g
sample weight ([1]; 58% RH, day 2): 1.5597 g
change in starting weight ([1]; 58% RH, day 3): +0.0793 g
sample weight ([1]; 58% RH, day 3): 1.5880 g
change in starting weight ([1]; 58% RH, day 4): +0.1011 g
sample weight ([1]; 58% RH, day 4): 1.6098 g
change in starting weight ([1]; 58% RH, day 5): +0.1111 g
sample weight ([1]; 58% RH, day 5): 1.6198 g
change in starting weight ([1]; 58% RH, day 6): +0.1208 g
sample weight ([1]; 58% RH, day 6): 1.6295 g
change in starting weight ([1]; 58% RH, day 7): +0.1333 g
sample weight ([1]; 58% RH, day 7): 1.6420 g
change in starting weight ([1]; 58% RH, day 8): 0.1487 g
change in starting weight ([1]; 58% RH, day 10): +0.1797 g
change in starting weight ([1]; 58% RH, day 12): +0.2166 g
sample weight ([1]; 58% RH, day 12): 1.7253 g
change in starting weight ([1]; 58% RH, day 13): +0.2250 g
sample weight ([1]; 58% RH, day 13): 1.7337 g
change in starting weight ([1]; 58% RH, day 14): +0.2338 g
sample weight ([1]; 58% RH, day 14): 1.7425 g
change in starting weight ([1]; 58% RH, day 15): +0.2445 g
sample weight ([1]; 58% RH, day 15): 1.7532 g
change in starting weight ([1]; 58% RH, day 16): +0.2531 g
sample weight ([1]; 58% RH, day 16): 1.7618 g
change in starting weight ([1]; 58% RH, day 17): +0.2593 g
sample weight ([1]; 58% RH, day 17): 1.7680 g
change in starting weight ([1]; 58% RH, day 21): +0.2773 g
sample weight ([1]; 58% RH, day 21): 1.7860 g
change in starting weight ([1]; 58% RH, day 23): +0.2818 g
sample weight ([1]; 58% RH, day 23): 1.7905 g
change in starting weight ([1]; 58% RH, day 26): +0.2818 g
Percent change based on average of final two weights ([1]; 75% RH): +21%
sample weight ([1]; 75% RH, day 0 (starting weight)): 1.5037 g
change in starting weight ([1]; 75% RH, day 1): +0.0581 g
sample weight ([1]; 75% RH, day 1): 1.5618 g
change in starting weight ([1]; 75% RH, day 2): +0.1166 g
sample weight ([1]; 75% RH, day 2): 1.6203 g
change in starting weight ([1]; 75% RH, day 3): +0.1625 g
sample weight ([1]; 75% RH, day 3): 1.6662 g
change in starting weight ([1]; 75% RH, day 4): +0.2103 g
sample weight ([1]; 75% RH, day 4): 1.7140 g
change in starting weight ([1]; 75% RH, day 5): +0.2501 g
sample weight ([1]; 75% RH, day 5): 1.7538 g
change in starting weight ([1]; 75% RH, day 6): +0.2825 g
sample weight ([1]; 75% RH, day 6): 1.7862 g
change in starting weight ([1]; 75% RH, day 7): +0.3054 g
sample weight ([1]; 75% RH, day 7): 1.8091 g
change in starting weight ([1]; 75% RH, day 8): +0.3152 g
change in starting weight ([1]; 75% RH, day 10): +0.3165 g
change in starting weight ([1]; 75% RH, day 12): +0.3197 g
sample weight ([1]; 75% RH, day 12): 1.8234 g
change in starting weight ([1]; 75% RH, day 13): +0.3171 g
sample weight ([1]; 75% RH, day 13): 1.8208 g
change in starting weight ([1]; 75% RH, day 14): +0.3152 g
sample weight ([1]; 75% RH, day 14): 1.8189 g
change in starting weight ([1]; 75% RH, day 15): +0.3146 g
sample weight ([1]; 75% RH, day 15): 1.8183 g
change in starting weight ([1]; 75% RH, day 16): +0.3139 g
sample weight ([1]; 75% RH, day 16): 1.8176 g
change in starting weight ([1]; 75% RH, day 17): +0.3117 g
sample weight ([1]; 75% RH, day 17): 1.8154 g
Percent change based on average of final two weights ([1]; 84% RH): +22%
sample weight ([1]; 84% RH, day 0 (starting weight)): 1.5023 g
change in starting weight ([1]; 84% RH, day 1): +0.0712 g
sample weight ([1]; 84% RH, day 1): 1.5735 g
change in starting weight ([1]; 84% RH, day 2): +0.1330 g
sample weight ([1]; 84% RH, day 2): 1.6353 g
change in starting weight ([1]; 84% RH, day 3): +0.1952 g
sample weight ([1]; 84% RH, day 3): 1.6975 g
change in starting weight ([1]; 84% RH, day 4): +0.2498 g
sample weight ([1]; 84% RH, day 4): 1.7521 g
change in starting weight ([1]; 84% RH, day 5): +0.2949 g
sample weight ([1]; 84% RH, day 5): 1.7972 g
change in starting weight ([1]; 84% RH, day 6): +0.3169 g
sample weight ([1]; 84% RH, day 6): 1.8192 g
change in starting weight ([1]; 84% RH, day 7): +0.3275 g
sample weight ([1]; 84% RH, day 7): 1.8298 g
change in starting weight ([1]; 84% RH, day 8): +0.3301 g
change in starting weight ([1]; 84% RH, day 12): +0.3322 g
sample weight ([1]; 84% RH, day 12): 1.8345 g
change in starting weight ([1]; 84% RH, day 13): +0.3288 g
sample weight ([1]; 84% RH, day 13): 1.8311 g
change in starting weight ([1]; 84% RH, day 14): +0.3260 g
sample weight ([1]; 84% RH, day 14): 1.8283 g
change in starting weight ([1]; 84% RH, day 15): +0.3255 g
sample weight ([1]; 84% RH, day 15): 1.8278 g
change in starting weight ([1]; 84% RH, day 16): +0.3249 g
sample weight ([1]; 84% RH, day 16): 1.8272 g
change in starting weight ([1]; 84% RH, day 17): +0.3225 g
sample weight ([1]; 84% RH, day 17): 1.8248 g
Percent change based on average of final two weights ([2]; 58% RH): +24%
Percent change based on average of final two weights ([2]; 75% RH): +25%
Percent change based on average of final two weights ([2]; 84% RH): +25%
weight gained on reaching constant weight ([2]; all humidities utilized, ambient temperature): 25%

Reference: patent publication US6245917A, “Crystalline sodium phenytoin monohydrate” (Warner-Lambert Company, priority 1999, dated 2001)
